From US20120129833A1, “CYCLIC KETOENOLS FOR THERAPY” (BAYER PHARMA AKTIENGESELLSCHAFT, priority 2010, published 2012)

What was measured:
[1] = biological target: T1, recombinant human ACC1 (acetyl-CoA carboxylase 1) (Homo sapiens, UniProt Q13085); assay: Human ACC1 enzyme assay (HTRF ADP detection); format: biochemical; settings: 50 μM ATP, 20 μM acetyl-CoA, 15 min pre-incubation, 20 min at 22° C.; read-out: ACC 1 IC50;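 note: ADP by-product quantified by competitive HTRF immunoassay with europium cryptate anti-ADP antibody and d2-labelled ADP, read after 1 h binding at 22 °C, enzyme near 2.5 ng/µl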
T1 construct: NM_198834, amino acids 39—end; FLAG (C); made in house; host or cells: baculovirus-transfected insect cells (Hi5)
Method: The basic principle of the assay is the measurement of adenosine diphosphate (ADP), which is formed as a by-product, by means of an HTRF®-based competitive immunoassay (HTRF=Homogeneous Time Resolved Fluorescence).
(§1) The amount of complex of d2-labelled ADP and europium cryptate-labelled anti-ADP antibody was then determined by measuring the resonance energy transfer of europium cryptate to d2.

[2] = biological target: T2, ACC2 (acetyl-CoA carboxylase 2) (Homo sapiens, UniProt O00763); assay: Human ACC2 enzyme assay (HTRF ADP detection); format: biochemical; settings: 20 μM acetyl-CoA, 15 min pre-incubation, 20 min at 22° C.; read-out: ACC 2 IC50
T2 construct: catalogue no; 50201, amino acids 39—end, expressed in baculovirus-transfected Sf9 insect cells; His (C); purchased BPS Bioscience (San Diego, Calif.) 50201; host or cells: baculovirus-transfected Sf9 insect cells
T2 sequence (O00763 39-2458 limits assumed): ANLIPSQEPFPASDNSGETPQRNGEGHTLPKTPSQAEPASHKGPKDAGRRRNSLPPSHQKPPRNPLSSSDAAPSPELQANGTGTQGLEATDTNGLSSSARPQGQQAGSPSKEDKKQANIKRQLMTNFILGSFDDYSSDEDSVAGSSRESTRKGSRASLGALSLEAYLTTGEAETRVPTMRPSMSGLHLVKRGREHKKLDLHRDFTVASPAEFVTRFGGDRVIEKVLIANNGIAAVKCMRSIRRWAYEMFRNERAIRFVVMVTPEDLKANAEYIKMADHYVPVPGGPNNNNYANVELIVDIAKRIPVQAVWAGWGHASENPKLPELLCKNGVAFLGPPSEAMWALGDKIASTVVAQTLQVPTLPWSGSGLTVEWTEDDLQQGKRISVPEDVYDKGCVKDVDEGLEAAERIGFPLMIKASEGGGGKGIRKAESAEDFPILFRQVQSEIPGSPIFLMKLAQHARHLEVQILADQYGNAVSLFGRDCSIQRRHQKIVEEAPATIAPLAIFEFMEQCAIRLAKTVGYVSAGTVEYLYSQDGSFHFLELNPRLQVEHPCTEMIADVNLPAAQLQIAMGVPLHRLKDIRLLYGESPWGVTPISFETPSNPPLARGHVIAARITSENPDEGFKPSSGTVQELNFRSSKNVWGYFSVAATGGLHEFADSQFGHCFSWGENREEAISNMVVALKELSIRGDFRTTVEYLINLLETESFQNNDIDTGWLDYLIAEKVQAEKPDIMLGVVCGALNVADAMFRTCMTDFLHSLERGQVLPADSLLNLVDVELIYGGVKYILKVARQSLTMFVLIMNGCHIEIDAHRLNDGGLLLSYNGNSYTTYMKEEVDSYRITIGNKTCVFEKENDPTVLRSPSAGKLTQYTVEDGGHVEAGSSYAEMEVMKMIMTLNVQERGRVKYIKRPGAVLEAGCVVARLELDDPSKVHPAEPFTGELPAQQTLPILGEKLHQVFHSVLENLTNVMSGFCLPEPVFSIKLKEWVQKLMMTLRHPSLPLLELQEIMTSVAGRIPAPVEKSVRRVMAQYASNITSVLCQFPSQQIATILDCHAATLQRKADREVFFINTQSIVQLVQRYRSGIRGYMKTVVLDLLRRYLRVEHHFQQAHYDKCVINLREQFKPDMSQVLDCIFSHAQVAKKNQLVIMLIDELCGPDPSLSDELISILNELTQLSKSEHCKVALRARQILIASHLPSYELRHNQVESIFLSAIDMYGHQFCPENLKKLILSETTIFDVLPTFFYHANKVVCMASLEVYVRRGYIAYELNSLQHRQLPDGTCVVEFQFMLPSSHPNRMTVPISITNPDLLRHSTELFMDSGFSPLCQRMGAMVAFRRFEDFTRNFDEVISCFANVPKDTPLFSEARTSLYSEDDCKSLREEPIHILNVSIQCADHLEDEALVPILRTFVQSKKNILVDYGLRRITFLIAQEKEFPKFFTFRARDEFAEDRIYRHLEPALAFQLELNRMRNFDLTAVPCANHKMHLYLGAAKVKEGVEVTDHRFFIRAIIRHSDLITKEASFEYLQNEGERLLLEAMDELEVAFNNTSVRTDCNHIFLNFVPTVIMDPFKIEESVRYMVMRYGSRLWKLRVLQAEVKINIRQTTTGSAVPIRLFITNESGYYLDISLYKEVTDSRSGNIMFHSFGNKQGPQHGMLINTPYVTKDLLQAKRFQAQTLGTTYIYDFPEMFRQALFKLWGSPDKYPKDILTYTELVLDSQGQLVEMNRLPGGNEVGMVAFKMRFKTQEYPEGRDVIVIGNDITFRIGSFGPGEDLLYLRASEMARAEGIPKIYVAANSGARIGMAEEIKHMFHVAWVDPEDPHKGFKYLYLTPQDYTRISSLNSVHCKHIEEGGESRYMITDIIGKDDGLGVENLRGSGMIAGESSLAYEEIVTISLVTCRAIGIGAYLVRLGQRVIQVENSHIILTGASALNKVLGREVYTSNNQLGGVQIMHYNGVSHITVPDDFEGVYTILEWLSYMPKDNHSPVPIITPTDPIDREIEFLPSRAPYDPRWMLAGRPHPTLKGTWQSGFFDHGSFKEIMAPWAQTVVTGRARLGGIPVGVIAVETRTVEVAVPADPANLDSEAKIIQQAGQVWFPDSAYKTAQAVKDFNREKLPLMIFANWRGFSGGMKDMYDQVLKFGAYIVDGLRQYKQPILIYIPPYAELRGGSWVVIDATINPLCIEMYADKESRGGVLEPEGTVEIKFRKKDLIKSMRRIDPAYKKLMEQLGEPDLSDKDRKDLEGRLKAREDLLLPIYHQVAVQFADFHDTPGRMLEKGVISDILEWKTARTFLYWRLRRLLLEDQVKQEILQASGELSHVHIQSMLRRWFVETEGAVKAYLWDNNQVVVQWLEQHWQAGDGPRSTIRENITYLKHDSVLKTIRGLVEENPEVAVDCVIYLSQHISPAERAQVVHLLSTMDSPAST
Method: The inhibitory activity of the substances of this invention with regard to acetyl-CoA carboxylase 2 (ACC2) was measured using the ACC2 assay described in the paragraphs below. The basic principle of the assay is the measurement of adenosine diphosphate (ADP), which is formed as a by-product, by means of an HTRF®-based competitive immunoassay (HTRF=Homogeneous Time Resolved Fluorescence).
as §1

| Structure (SMILES) | IC50 [1] [nM] | IC50 [2] [nM] |
| --- | --- | --- |
| Cc1ccc(-c2ccc(Cl)cc2)cc1C1=C(O)[C@@]2(CC[C@H](OCC(C)C)C2)NC1=O (relative stereo) [Example 1-49, rel-(5R,7R)-3-(4′-chloro-4-methylbiphenyl-3-yl)-4-hydroxy-7-(2-methylpropoxy)-1-azaspiro[4.4]non-3-en-2-one] | 240 | 9900 |
| CCOCCO[C@@H]1CC[C@@]2(C1)NC(=O)C(c1cc(-c3ccc(Cl)cc3)ccc1C)=C2O (relative stereo) [Example 1-50, rel-(5R,7S)-3-(4′-chloro-4-methylbiphenyl-3-yl)-7-(2-ethoxyethoxy)-4-hydroxy-1-azaspiro[4.4]non-3-en-2-one] | 472 | 6270 |
| COCCO[C@@H]1CCC[C@]2(C1)NC(=O)C(c1cc(-c3ccc(Cl)cc3)ccc1Cl)=C2O (relative stereo) [Example 1-74, rel-(5R,7R)-3-(4,4′-dichlorobiphenyl-3-yl)-4-hydroxy-7-(2-methoxyethoxy)-1-azaspiro[4.5]dec-3-en-2-one] | 656 | 16400 |
| Cc1ccc(-c2ccc(Cl)cc2)c(C)c1C1=C(O)C2(CCOCC2)NC1=O [Example 1-1, 3-(4′-chloro-2,4-dimethylbiphenyl-3-yl)-4-hydroxy-8-oxa-1-azaspiro[4.5]dec-3-en-2-one] | 460 | 8800 |
| CO[C@H]1CC[C@]2(CC1)NC(=O)C(c1cc(-c3ccc(Cl)cc3)ccc1C)=C2O [Example 1-2, (5s,8s)-3-(4′-chloro-4-methylbiphenyl-3-yl)-4-hydroxy-8-methoxy-1-azaspiro[4.5]dec-3-en-2-one] | […] | 370 |
| Cc1ccc(-c2ccc(Cl)cc2)cc1C1=C(O)C2(CCOC(C)C2)NC1=O (stereo not drawn) [Example 1-3, 3-(4′-chloro-4-methylbiphenyl-3-yl)-4-hydroxy-7-methyl-8-oxa-1-azaspiro[4.5]dec-3-en-2-one] | 450 | 5400 |
| Cc1ccc(-c2ccc(Cl)cc2)c(C)c1C1=C(O)C2(CCC(C)CC2)NC1=O (stereo not drawn) [Example 1-4, 3-(4′-chloro-2,4-dimethylbiphenyl-3-yl)-4-hydroxy-8-methyl-1-azaspiro[4.5]dec-3-en-2-one] | 460 | 330 |
| Cc1ccc(-c2ccc(Cl)cc2)cc1C1=C(O)C2(CCCOC2)NC1=O (stereo not drawn) [Example 1-5, 3-(4′-chloro-4-methylbiphenyl-3-yl)-4-hydroxy-7-oxa-1-azaspiro[4.5]dec-3-en-2-one] | 287 | 8240 |
| Cc1ccc(-c2ccc(Cl)cc2)cc1C1=C(O)C2(CCOCC2)NC1=O [Example 1-6, 3-(4′-chloro-4-methylbiphenyl-3-yl)-4-hydroxy-8-oxa-1-azaspiro[4.5]dec-3-en-2-one] | 300 | 5200 |
| COC1CCC2(CC1)NC(=O)C(c1cc(-c3ccc(Cl)cc3)c(C)cc1C)=C2O (stereo not drawn) [Example 1-7, 3-(4′-chloro-4,6-dimethylbiphenyl-3-yl)-4-hydroxy-8-methoxy-1-azaspiro[4.5]dec-3-en-2-one] | 1700 | 87 |
| Cc1cc(C)c(-c2ccc(Cl)cc2)cc1C1=C(O)C2(CCCOC2)NC1=O (stereo not drawn) [Example 1-8, 3-(4′-chloro-4,6-dimethylbiphenyl-3-yl)-4-hydroxy-7-oxa-1-azaspiro[4.5]dec-3-en-2-one] | 790 | 810 |
| COC1CCC2(CC1)NC(=O)C(c1c(C)cc(C)c(-c3ccc(Cl)cc3)c1C)=C2O (stereo not drawn) [Example 1-9, 3-(4′-chloro-2,4,6-trimethylbiphenyl-3-yl)-4-hydroxy-8-methoxy-1-azaspiro[4.5]dec-3-en-2-one] | 16600 | 626 |
| Cc1ccc(-c2ccc(Cl)cc2)c(C)c1C1=C(O)C2(CCCOC2)NC1=O (stereo not drawn) [Example 1-10, 3-(4′-chloro-2,4-dimethylbiphenyl-3-yl)-4-hydroxy-7-oxa-1-azaspiro[4.5]dec-3-en-2-one] | 550 | 6400 |
| COC1CCC2(CC1)NC(=O)C(c1cc(-c3ccc(Cl)cc3)ccc1Cl)=C2O (stereo not drawn) [Example 1-11, 3-(4,4′-dichlorobiphenyl-3-yl)-4-hydroxy-8-methoxy-1-azaspiro[4.5]dec-3-en-2-one] | 240 | 1000 |
| Cc1ccc(-c2ccc(C(F)(F)F)cc2)cc1C1=C(O)C2(CCCCC2)NC1=O [Example 1-12, 4-hydroxy-3-[4-methyl-4′-(trifluoromethyl)biphenyl-3-yl]-1-azaspiro[4.5]dec-3-en-2-one] | 772 | 18200 |
| Cc1ccc(-c2ccc(C)c(C3=C(O)C4(CCCCC4)NC3=O)c2)cc1 [Example 1-13, 3-(4,4′-dimethylbiphenyl-3-yl)-4-hydroxy-1-azaspiro[4.5]dec-3-en-2-one] | 353 | 18900 |
| Cc1ccc(-c2ccc(C)c(C3=C(O)C4(CCCOC4)NC3=O)c2)cc1 (stereo not drawn) [Example 1-14, 3-(4,4′-dimethylbiphenyl-3-yl)-4-hydroxy-7-oxa-1-azaspiro[4.5]dec-3-en-2-one] | 990 | > 20000 |
| Cc1ccc(-c2ccc(C)c(C3=C(O)C4(CCOCC4)NC3=O)c2)cc1 [Example 1-15, 3-(4,4′-dimethylbiphenyl-3-yl)-4-hydroxy-8-oxa-1-azaspiro[4.5]dec-3-en-2-one] | 742 | > 20000 |
| Cc1ccc(-c2ccc(Cl)cc2)cc1C1=C(O)CN(C)C1=O [Example 1-16, 3-(4′-chloro-4-methylbiphenyl-3-yl)-4-hydroxy-1-methyl-1,5-dihydro-2H-pyrrol-2-one] | 329 | > 20000 |
| Cc1ccc(-c2ccc(Cl)cc2)c(C)c1C1=C(O)C2(CCC3(CC2)OCC(C)O3)NC1=O (stereo not drawn) [Example 1-62, 11-(4′-chloro-2,4-dimethylbiphenyl-3-yl)-12-hydroxy-2-methyl-1,4-dioxa-9-azadispiro[4.2.4.2]tetradec-11-en-10-one] | 690 | – |
| COC1CCC2(CC1)NC(=O)C(c1cc(-c3ccc(Cl)c(Cl)c3)ccc1C)=C2O (stereo not drawn) [Example 1-81, 3-(3′,4′-dichloro-4-methylbiphenyl-3-yl)-4-hydroxy-8-methoxy-1-azaspiro[4.5]dec-3-en-2-one] | – | 1410 |
| Cc1ccc(-c2ccc(Cl)cc2)cc1C1=C(O)C2(CC2)NC1=O [Example 1-84, 6-(4′-chloro-4-methylbiphenyl-3-yl)-7-hydroxy-4-azaspiro[2.4]hept-6-en-5-one] | 455 | – |
| CCCC1CCC2(CC1)OC(=O)C(c1cc(-c3ccc(Cl)cc3)ccc1C)=C2O (stereo not drawn) [Example 2-36, 3-(4′-chloro-4-methylbiphenyl-3-yl)-4-hydroxy-8-propyl-1-oxaspiro[4.5]dec-3-en-2-one] | – | 1940 |
| COC1CCC2(CC1)SC(=O)C(c1cc(-c3ccc(Cl)cc3)ccc1C)=C2O (stereo not drawn) [Example 3-1, 3-(4′-chloro-4-methylbiphenyl-3-yl)-4-hydroxy-8-methoxy-1-thiaspiro[4.5]dec-3-en-2-one] | 853 | – |
| Cc1ccc(-c2ccc(Cl)c(Cl)c2)cc1-c1c(O)c2ccc(Cl)cc2[nH]c1=O [Example 9-7, 7-chloro-3-(3′,4′-dichloro-4-methylbiphenyl-3-yl)-4-hydroxyquinolin-2(1H)-one] | – | 8290 |
| Cc1cc(C)c(-c2c(O)c3ccc(Cl)cc3[nH]c2=O)cc1-c1ccc(Cl)cc1 [Example 9-12, 7-chloro-3-(4′-chloro-4,6-dimethylbiphenyl-3-yl)-4-hydroxyquinolin-2(1H)-one] | 580 | – |
